Assay results taken from patent US6808875B2, “Methods for screening cellular proliferation using isotope labels” (priority 1997, dated 2004).

Key:
[1] = Plasma glucose enrichment during labeled glucose infusion in rats; format: in vivo
Description: Trimethylsilyl derivatives of nucleosides were synthesized by incubation of lyophilized hydrolysates with BSTFA:pyridine (4:1) at 100° C. for 1 hour. Samples were analyzed by GC-MS (DB-17 HT column, J&W Scientific, Folsom Calif.; HP 5890 GC and 5971MS, Hewlett Packard, Palo Alto, Calif.). Abundances of ions at mass to charge ratio (m/z) 467 and 469 were quantified under selected ion recording mode for deoxyadenosine (dA); and m/z 555 and 557 were monitored for deoxyguanosine (dG). Under the derivatization and GC-MS conditions employed, the purines (dA and dG) gave larger peaks (FIG. 3) than the pyrimidines, resulting in greater sensitivity and a higher signal-to-noise ratio. To measure the enrichment of glucose, plasma or culture media were deproteinized with perchloric acid and passed through anion and cation exchange columns (Neese et al., 1995, J. Biol. Chem. 270:14452-14463). The glucose penta-acetate derivative was formed by incubation with acetic anhydride in pyridine. GC-MS analysis was performed as described previously (Neese et al., 1995, J. Biol. Chem […]), monitoring m/z 331 and 333 under selected ion recording.
Four rats (approximately 250 g) were infused with labeled glucose. […] DNA was extracted from cell preparations, then hydrolyzed to nucleosides and analyzed by GC-MS (FIG. 2). […]

[2] = human, in vivo
Description: Trimethylsilyl derivatives of nucleosides were synthesized by incubation of lyophilized hydrolysates with BSTFA:pyridine (4:1) at 100° C. for 1 hour. Samples were analyzed by GC-MS (DB-17 HT column, J&W Scientific, Folsom Calif.; HP 5890 GC and 5971MS, Hewlett Packard, Palo Alto, Calif.). Abundances of ions at mass to charge ratio (m/z) 467 and 469 were quantified under selected ion recording mode for deoxyadenosine (dA); and m/z 555 and 557 were monitored for deoxyguanosine (dG). Under the derivatization and GC-MS conditions employed, the purines (dA and dG) gave larger peaks (FIG. 3) than the pyrimidines, resulting in greater sensitivity and a higher signal-to-noise ratio. […]
One subject was a healthy normal volunteer and the other three were HIV-seropositive men, who were participating in lymphocyte kinetic studies (blood CD4 T cell counts in the range 215-377/mm^3). […] Granulocyte DNA was extracted, hydrolyzed to nucleosides and analyzed by GC-MS, as described in Section 6.1.2, supra. […]
All were clinically stable at the time of investigation. […] Granulocytes were isolated and dA enrichment measured from DNA. […]
48-hr constant intravenous infusions of labeled glucose were performed to ensure a representative time sample of T cell kinetics. Enrichments of plasma glucose were measured every 12 hr during the infusion. […]

HIV-1 = conditions: Patient #6, previous protease inhibitor
[3] = system: lymphocytic cell line, H9; assay: Label incorporation into dA of DNA in cultured H9 cells (GC-MS, cell counting); format: cell-based; conditions: H9, unlabeled glycerol
Description: (§1) DNA was prepared from cells or tissues by phenol-chloroform-isoamyl alcohol extraction of cell suspensions or tissue homogenates. Yield and purity were confirmed by optical density. After heat denaturation, DNA was hydrolyzed enzymatically to deoxyribonucleosides by sequential digestion with nuclease P1, phosphodiesterase, and alkaline phosphatase, as described by Crain et al. (Crain, 1990, Methods Enzymol. 193:782-790). Nucleoside yield and purity were confirmed by HPLC using a C-18 column and water-methanol gradient (Shigenaga et al., 1994, Methods Enzymol. 234:16-33).
(§2) Trimethylsilyl derivatives of nucleosides were synthesized by incubation of lyophilized hydrolysates with BSTFA:pyridine (4:1) at 100° C. for 1 hour. Samples were analyzed by GC-MS (DB-17 HT column, J&W Scientific, Folsom Calif.; HP 5890 GC and 5971MS, Hewlett Packard, Palo Alto, Calif.). Abundances of ions at mass to charge ratio (m/z) 467 and 469 were quantified under selected ion recording mode for deoxyadenosine (dA); and m/z 555 and 557 were monitored for deoxyguanosine (dG). […]
(§3) Two cell lines were used: a hepatocyte cell line, HepG2, and a lymphocytic cell line, H9, which is a CD4^+ T cell line. […] In both cases the number of cells present was measured by counting an aliquot on a Coulter ZM0901 cell counter. […]

[4] = system: hepatocyte cell line, HepG2; assay: Label incorporation into dA of DNA in cultured HepG2 cells (GC-MS, cell counting); format: cell-based; conditions: HepG2, unlabeled glycerol
Description: as §1, §2, §3

## [2H]C([2H])(O)[C@H]1OC(O)[C@H](O)[C@@H](O)[C@@H]1O (stereo partly drawn) [[6,6-^2H2] glucose]
[1]; rat, in vivo
  Mean glucose enrichment for the 24 hr infusion period: 9.2±0.6%
[1]; rats (n=4), iv infusion approximately 24 hours, fasting
  Plasma glucose enrichment at sacrifice: 13.2±0.9%
[2]
  Plasma enrichment after discontinuing the intravenous infusion, % of steady-state values: < 10%

## CC(C)(C)NC(=O)[C@@H]1CN(Cc2cccnc2)CCN1C[C@@H](O)C[C@@H](Cc1ccccc1)C(=O)N[C@H]1c2ccccc2C[C@H]1O [indinavir]
HIV-1
  viral load at failure: 28,000

## OCC(O)CO [unlabeled glycerol, glycerol]
[3]
  Effect on labeling from 10% [6,6-^2H2] glucose: did not affect labeling
[4]
  Reduction of incorporation into dA from 10% [6,6-^2H2] glucose: 7%
